Measurements as given in patent US20250009716A1, “NOVEL INHIBITORS OF CLAUDIN-1 FOR THERAPEUTIC INTERVENTIONS” (BOARD OF REGENTS OF THE UNIVERSITY OF NEBRASKA, priority 2021, published 2025).
“Also recorded” adds a separate entry of the source.

Columns and labels:
[1] = system: p-Src and c-PARP in SW480claudin-1 overexpressing cells; assay: Expression of p-Src, Src and c-PARP; assay type: cell-based
Excerpt: (§1) To this end, a library of molecules was synthesized in order to develop an initial SAR evaluation. The first compounds tested eliminated the acylated (thio) urea as well as the napthyl group and evaluated just the urea/phenyl compounds (Compounds 1-6). The methoxy group of the naphthalene ring system was needed when the benzimidazole group was present (16 vs. Compound 8). […] The result of metabolic stability was expressed as the percentage of drug remaining at each time. […] To further determine the effect of PDS-0330 on p-Src expression and association, cells were treated with Compound 1, 16 and PDS-0330. Expression and association with p-Src was unaffected with Compound 1 (negative control). The specificity of PDS-0330 for CLDN1 was further confirmed by treating SW480^CLDN1, HCT116^CLDN2 (overexpressing another tight junction protein) or normal IEC-6 cells with PDS-0330 (FIG. 12).
(§2) Furthermore, DLD-1 chemoresistant cells were treated with PDS-0330 and I-6. […] Based on the in vitro activity and metabolic stability, PDS-0330, and any potential new analogs will be evaluated in animal models to determine the pharmacokinetic properties and biodistribution as described in preliminary data.

[2] = system: SW480claudin-1 cells; assay: Cell invasion assay; assay type: cell-based
Excerpt: (§3) The crystal structure of claudin-1 is unknown. Therefore, an in-silico protein folding program, YASARA, was used to identify an effective claudin-1 inhibitor. The resultant 3D-structure was then modeled using Molegro Virtual Docker (MVD) software program. These in-silico analyses identified putative cavities in the claudin-1 protein that can be targeted by small molecule inhibitors. Next, a 100K library of small molecules was screened in silico using the MVD. The top 10 inhibitors that bound to the Site #3 (targeting near c-terminal domain; the most accessible pocket; FIG. 2A) with the best binding energies were selected as hits and used for further testing. Screening of these inhibitors named Inihibitor-1 (1-1) to Inhibitor-10 (I-10) was done using SW480claudin-1, SW620 and control cells. Claudin-1 deficient HCT116 cells (WT-APC) or SW620shRNAcld-1 were used as negative controls. Resistance to anoikis and cell invasion was used as biological end-points in testing these inhibitors. […] 16 has the following structure:
To this end, a library of molecules was synthesized in order to develop an initial SAR evaluation. The first compounds tested eliminated the acylated (thio) urea as well as the napthyl group and evaluated just the urea/phenyl compounds (Compounds 1-6). […] The result of metabolic stability was expressed as the percentage of drug remaining at each time. […]

[3] = system: DLD-1 chemoresistant cells; assay: p-Src and c-PARP expression in 5FU resistant cells; assay type: cell-based
Method: as §2

[4] = system: SW480claudin-1 cells xenograft tumors; assay: SW480claudin-1 xenograft tumor growth; assay type: in vivo
Method: (A) In-silico 3D-structure of claudin-1, cavities that can be targeted by small molecules were defined using Molegro Virtual Docker. (B) Cell survival assay showing effects of three different inhibitors (I1, I2 and 16). […] (C) Effect of 16 treatment (72 hours) upon resistance to anoikis in claudin-1 overexpressing SW480 cells and claudin-1 deficient HCT116 cells. (D) Effect of 16 treatment on cell invasion in SW480claudin-1 cells. (E) Effect of inhibitor 16 on xenograft tumors. […] Effect on tumor growth was monitored.
Tumor volume and weight were measured.
In vivo validation of the anti-tumorigenic and metastatic effects of 1-6 treatment: (i) Xenograft model. […] These studies are elaborated using claudin-1 positive (HT29, DLD-1, SW620 cells) and negative (HCT116, SW620ShRNA) for similar xenograft tumor growth studies (15,50). Luciferin expressing cells (established in our lab) are used to help examining longitudinal growth of these tumors using live mouse imaging.

[5] = molecular target: T1, claudin-1/Src complex in SW480claudin-1 cells (Homo sapiens, UniProt O95832); assay: Claudin-1/Src association (proximity ligation assay, Co-IP); assay type: cell-based; conditions: PLA, Co-IP or immuno-precipitation
T1 construct: claudin-1 was expressed in a non-metastatic CRC cell line, SW480 cells; expressed in transfected cells; host or cells: SW480 colorectal cancer cells expressing claudin-1 (SW480claudin-1)
T1 sequence (O95832 1-211): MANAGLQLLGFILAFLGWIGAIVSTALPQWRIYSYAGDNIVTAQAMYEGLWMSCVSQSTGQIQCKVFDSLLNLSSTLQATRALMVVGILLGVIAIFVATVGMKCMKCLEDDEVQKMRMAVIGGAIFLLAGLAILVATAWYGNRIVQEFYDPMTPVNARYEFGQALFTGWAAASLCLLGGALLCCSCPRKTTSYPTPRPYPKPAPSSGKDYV
Excerpt: The CSC cells contribute to the generation of metastasis (16-19), and key CSC characteristics are highly relevant to metastasis, including invasive motility, and, resistance to apoptosis (20,21). […] Considering that chemoresistance is central to the CRC progression and metastasis, we further tested if adjuvant use of 16 with 5FU can have significant bearing upon these traits. Colon cancer cells were subjected to exogenous administration of 16 alone, or in combination with the 5-FU, the conventional anti-CRC drug. […] To further determine the mechanistic details the effect of 16 on association of claudin-1 and Src, SW480claudin-1 cells were treated with 16 or the vehicle and resultant cell lysate was subjected to Proximity ligation assay (PLA) or Co—IP.

[6] = system: SW480claudin-1 cells; assay: Resistance to anoikis in claudin-1 overexpressing cells; assay type: cell-based; conditions: for effect on resistance to anoikis: 72 h treatment; for activity: FIG. 9, printed only as 'activity', kind of value not named
Excerpt: as §3, §1

[7] = system: p-Src and p-EphA2 in SW480claudin-1 cells; assay: Phosphorylation of Src and EphA2 versus dasatinib; assay type: cell-based
Method: Effects on (A) phosphorylation of Src and EphA2 and (B) cell survival (MTT assay) were determined.

[8] = system: SW480claudin-1 cells; assay: Soft agar colony formation assay; assay type: cell-based
Excerpt: as §1

SMILES: COc1cc2ccccc2cc1C(=O)NC(=S)Nc1ccc(-c2nc3ccccc3[nH]2)cc1 [Compound 16]
- apoptosis (c-PARP) [1]: increased apoptosis (c-PARP)
- p-Src expression [1]: reduced p-Src expression
- effect on cell invasion [2]: most effective
- apoptosis (c-PARP) [3]: increase in apoptosis (c-PARP)
- p-Src expression [3]: decrease in p-Src expression
- growth of xenograft tumors ([4]; 16 i.p. 10 mg/kg): significantly inhibited
- toxic effects on xenograft mice ([4]; 16 i.p. 10 mg/kg): did not observe any toxic effects
- claudin-1/Src (p-Src) association [5]: markedly suppressed; also recorded: reduced
- effect on resistance to anoikis [6]: most effective
- activity [6]: 28.4 µM

SMILES: O=C(NC(=S)Nc1ccc(-c2nc3ccccc3o2)cc1)c1ccc2ccccc2c1 [PDS-0330]
- apoptosis (c-PARP) [1]: most potent effects
- p-Src expression [1]: most potent effects
- p-EphA2 and p-Src expression [7]: inhibited p-EphA2 expression along with p-Src; also recorded: more effective in inhibiting cell survival and p-EphA2 expression
- effect on cell invasion [2]: significantly inhibited
- apoptosis (c-PARP) [3]: increase in apoptosis (c-PARP)
- p-Src expression [3]: decrease in p-Src expression
- xenograft tumor growth ([4]; PDS-0330 ip, 2.5, 5 mg/kg): decrease in xenograft tumor growth
- claudin-1/Src (p-Src) association [5]: most potent effects; also recorded: inhibits Src association
- activity improvement of PDS-0330 over 16 ([6]; 8.4 μM vs. 28.4 μM): ~3 fold
- effect on resistance to anoikis [6]: most potent compound; also recorded: significantly inhibited
- activity [6]: 8.4 µM
- effect on soft agar colony formation [8]: significantly inhibited
